Patent US20200085805A1, “METHOD FOR TREATING CANCER RELATED TO ACTIVATION OF RAS GENE IN SUBJECT” (priority 2018, published 2020)

Legend:
[1] = test system: L185+L186 Drosophila tumor model; experiment: Inhibition of tumors in GFP-scrib-/- Drosophila tumor model (GFP fluorescence, live imaging); format: in vivo, Drosophila melanogaster; conditions: oral administration of 24 mM in doped culture medium, 5 days, 80 pupae; without compound 2.37×10^9 μW/cm^2
Excerpt: A green fluorescent protein (GFP)-tagged FLP/FRT recombinant system and scrib/TM6B balanced Drosophila melanogaster strain were used for hybridization to obtain a GFP-scrib−/− chimeric tumorigenesis model (L185+L186), wherein the GFP expression is in linkage with tumorigenesis. The preparation of a normal culture medium and a doped culture medium was the same as in embodiment 1. After culturing in the normal culture medium and the doped culture medium for 5 days, 80 pupae were taken from the culture tubes used for the test and washed twice with PBS (phosphate buffered saline solution). The pupae were neatly arranged on slides and were then transferred to an ice box to freeze for 2 hours. The pupae were observed under an IVIS Lumina X5 live imaging system (excitation light wavelength 450-490 nm, the same hereafter), images were taken, and the expression of the green fluorescent protein was evaluated.

RAS mRNA = experiment: Reduction of RAS mRNA in Drosophila pupae, measured by RT-PCR (2-ΔΔCt method); format: in vivo; conditions: 24 mM in culture medium, 5 days culture, 40 pupae, GAPDH internal reference, versus normal medium control
Experimental: The molecular weight of 1-methyl-4-phenyl-1,2,3,6-tetrahydropyridine is 173.25 g/mol. 1.7325 g of the compound was accurately weighed, dissolved in 10 mL of DMSO solution to prepare a 1 M mother liquid for later use.
The preparation of a normal culture medium: 0.53 g of agar and 1.6 g of yeast extraction powder was added to 50 mL H2O. The mixture obtained was heated until boiling. Then, 0.43 g of NaKT, 0.033 g of anhydrous CaCl2, 1.58 g of sucrose, 3.17 g of glucose, and 3.88 g of corn flour (pre-mixed thoroughly with cold water to prevent agglomeration) were added to the mixture, and was brought to boil before stopping heating. The final mixture was transferred in aliquots into a number of culture tubes with a diameter of 25 mm and a volume of 5-8 mL. The filled culture tubes were sterilized at high temperature (30 min, 116° C.), followed by cooling to around 50° C. […]
In the present invention, the content of RAS mRNA was measured by RT-PCR. […] After the amplification, the relative expression level of K-RAS in Drosophila was determined by the 2-ΔΔCt method.
After culturing in the normal culture medium (as a control group) and a culture medium doped by 24 mM of 1-methyl-4-phenyl-1,2,3,6-tetrahydropyridine (as a test group) for 5 days, 40 pupae were taken from each of the culture tubes used for the test. […] The relative amount of RAS mRNA was determined by the above method.

For `CN1CC=C(c2ccccc2)CC1` [1-methyl-4-phenyl-1,2,3,6-tetrahydropyridine], the “absolute value of the fluorescence of the Drosophila tumor model” value [1] was 3.5×10^8 μW/cm^2 and the “reduction of RAS mRNA level” value (RAS mRNA) was 3.5 folds.
